Test results taken from PubChem BioAssay (NCI).
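Five compound concentrations were applied to cells in 96-well plates for 48 hours; endpoints were derived by simple linear interpolation of the resulting dose-response curve. GI50 is the concentration that inhibits growth by half. The concentration for full growth arrest is given as TGI.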

How the values were obtained:
Assay in all cases: NCI tumour cell line growth inhibition, 48 h
HOP-92 NSCLC = test system: HOP-92 NSCLC
ACHN renal = test system: ACHN renal
MOLT-4 leukemia = test system: MOLT-4 leukemia
NCI/ADR-RES ovarian = test system: NCI/ADR-RES ovarian
IGROV1 ovarian = test system: IGROV1 ovarian
HCT-116 colon = test system: HCT-116 colon
K-562 leukemia = test system: K-562 leukemia
SF-268 CNS = test system: SF-268 CNS
SK-OV-3 ovarian = test system: SK-OV-3 ovarian
MDA-MB-435 = test system: MDA-MB-435
SN12C renal = test system: SN12C renal
SNB-75 CNS = test system: SNB-75 CNS
CAKI-1 renal = test system: CAKI-1 renal
SNB-19 CNS = test system: SNB-19 CNS
NCI-H522 lung = test system: NCI-H522 lung
UO-31 renal = test system: UO-31 renal

SMILES | TGI (HOP-92 NSCLC) [µM] | TGI (ACHN renal) [µM] | TGI (MOLT-4 leukemia) [µM] | TGI (NCI/ADR-RES ovarian) [µM] | TGI (IGROV1 ovarian) [µM] | TGI (HCT-116 colon) [µM] | TGI (K-562 leukemia) [µM] | TGI (SF-268 CNS) [µM] | TGI (SK-OV-3 ovarian) [µM] | TGI (MDA-MB-435) [µM] | TGI (SN12C renal) [µM] | TGI (SNB-75 CNS) [µM] | TGI (CAKI-1 renal) [µM] | TGI (SNB-19 CNS) [µM] | TGI (NCI-H522 lung) [µM] | TGI (UO-31 renal) [µM] | GI50 (HOP-92 NSCLC) [µM]
C[C@H](NC(=O)c1ccc(CNC(=O)/C=C/c2cccc(Oc3ccccc3)c2)cc1)c1ccccc1 | > 100 | > 100 | > 100 | > 100 | > 100 | > 100 | > 100 | > 100 | > 100 | > 100 | > 100 | 44.2 | 59.5 | > 100 | > 100 | > 100 | 
CC(C)=CCC/C(=C/CC/C(=C\CCc1ccoc1)C(=O)O)C(=O)O | > 100 | > 100 | > 100 | > 100 | > 100 | > 100 | > 100 | > 100 | > 100 | > 100 | > 100 | > 100 | > 100 | > 100 | > 100 | > 100 | 
N#CC(=C1CCN(CCCC(=O)c2ccc(F)cc2)CC1)c1ccccc1 | > 100 | > 100 | > 100 | > 100 | > 100 | > 100 | > 100 | > 100 | > 100 | > 100 | > 100 | > 100 | > 100 | > 100 | 95.2 | > 100 | 
Cc1cccc(CP(Cc2cccc(C)c2)CC2(Cp3c4ccccc4c4ccccc43)COC2)c1 | > 100 | > 100 | 37.8 | > 100 | > 100 | > 100 | > 100 | > 100 | > 100 | > 100 | > 31.6 | > 100 | > 76.5 | > 31.6 | > 85.8 | > 100 | 
CCCNC(=O)CCC(C)C1CCC2C3C(C[C@H](OC(C)=O)[C@]12C)[C@@]1(C)CCC2(C[C@H]1C[C@H]3OC(C)=O)OOC1(CC[C@]3(C)C4C[C@H](OC(C)=O)[C@]5(C)C(C(C)CCC(=O)NCCC)CCC5C4[C@H](OC(C)=O)C[C@@H]3C1)OO2 (stereo not given in full) | > 68.4 | > 82.2 | > 100 | > 100 | > 100 | > 100 | > 100 | > 100 | > 100 | > 100 | > 100 | > 69.5 | > 100 | > 100 | > 100 | 3.31 | 7.51
O=C(NCCNCCCNC(=O)c1cc(-c2ccccc2)nc2ccccc12)c1cccc(O)c1O | 62.9 | 20 | > 100 | > 100 | 28.9 | 28.5 | 11.1 | 16.4 | > 100 | 13.1 | 52.6 | 60.9 | > 100 | 11.8 | 29.7 | 14.9 | 
CN(C)C(=S)/N=c1\ssc(=S)n1Cc1cccnc1 | > 100 | > 100 | 98.5 | 4.51 | > 100 | > 100 | > 100 | > 100 | > 81.1 | 1.57 | > 100 | 20.6 | > 100 | > 100 | 9.61 | > 100 | 
Brc1cc(CCOC2CCCCO2)c(-c2sccc2CCOC2CCCCO2)s1 (stereo not given) | > 100 | > 100 | > 61.3 | > 100 | > 100 | > 100 | > 31.6 | > 100 | > 100 | > 100 | > 100 | > 100 | > 100 | > 100 | > 69.6 | > 42.1 | 
O=C(CCc1ccc(O)c(O)c1)NCCc1cc(O)cc(O)c1 | > 100 | > 100 | > 100 | > 100 | > 100 | > 100 | 79.4 | > 100 | > 100 | 66.6 | > 100 | > 100 | > 100 | > 100 | > 100 | > 100 | 
